This is an account of results in ChEMBL document CHEMBL1955749, “Synthesis and anti-influenza activity of aminoalkyl rupestonates” (Bioorg Med Chem Lett, 2012).

Active and inactive are the calls of the source. The rule behind the calls is not given here.

Series [1] concerns Influenza A virus. As to the kind of experiment: Antiinfluenza activity against influenza A virus. In kind it is functional, organism-based.
Series [2] concerns Influenza A virus. As to the kind of experiment: Antiinfluenza activity against influenza A virus H3N2 infected in MDCK cells assessed as inhibition of virus-induced cytopathic effect after 36 hrs. In kind it is functional, organism-based.
The subject of series [3] is Influenza A virus. Description: Antiinfluenza activity against influenza A virus H1N1 infected in MDCK cells assessed as inhibition of virus-induced cytopathic effect after 36 hrs. In kind it is functional, organism-based.
The subject of series [4] is Influenza B virus. Description: Antiinfluenza activity against influenza B virus infected in MDCK cells assessed as inhibition of virus-induced cytopathic effect after 36 hrs. In kind it is functional, organism-based. On the technique in general: Protection from cytopathic effect is a common read-out in antiviral testing.
Series [5] is described as follows: Cytotoxicity against MDCK cells. The settings on record: dog, read-out: TC50 (the source's name). The series is classed as cell-based, Canis lupus familiaris.
Series [6] in a line: Selectivity index, ratio of TC50 for MDCK cells to IC50 for influenza A virus H3N2. The series is classed as toxicity, cell-based. The settings on record: dog, read-out: Selectivity Index.
Series [7] in a line: Selectivity index, ratio of TC50 for MDCK cells to IC50 for influenza A virus H1N1. In kind it is toxicity, cell-based. Conditions: dog, read-out: Selectivity Index.
Series [8] is described as follows: Selectivity index, ratio of TC50 for MDCK cells to IC50 for influenza B virus. Conditions: dog, read-out: Selectivity Index. The series is classed as toxicity, cell-based.
Series [9] relates to Influenza A virus. Description: Antiinfluenza activity against influenza A virus H3N2 infected in MDCK cells assessed as inhibition of virus-induced cytopathic effect at 0.15 to 1.37 ug/ml after 36 hrs. The series is classed as functional, organism-based.
The test system of series [10] is Influenza A virus. As to the kind of experiment: Antiinfluenza activity against influenza A virus H3N2. In kind it is functional, organism-based.
The subject of series [11] is Influenza A virus. As to the kind of experiment: Antiinfluenza activity against influenza A virus H1N1. In kind it is functional, organism-based.
For series [12], the system named is Influenza B virus. Description: Antiinfluenza activity against influenza B virus. The series is classed as functional, organism-based.

For orientation: IC50 means the concentration needed to halve the response being measured.

For `C=C(C(=O)O)[C@@H]1CC[C@H](C)[C@@H]2CC(=O)C(C)=C2C1c1ccc(C(C)(C)C)cc1` (stereo partly specified), in the series on Influenza A virus [1], it took 0.5 µM to reach half-maximal inhibition (IC50).
Consider `C=C(C(=O)OCCCCCCCCCCn1cncn1)[C@@H]1CC[C@H](C)[C@@H]2CC(=O)C(C)=C2C1`, for which the values for the IC50 in the series on Influenza A virus [2], in the series on Influenza A virus [3] and in the series with Influenza B virus [4] were 0.97 µM, 0.42 µM and 11.3 µM, respectively. Further, in [5], the CC50 came out at 27.1 µM. Also, the selectivity ratio in series [6] came out at 28.1; in series [7], 65; in series [8], 2.4. In addition, the inhibition result with Influenza A virus [9] was “Active”.
Regarding `C=C(C(=O)OCCCCCCCCCCN1CCN(C)CC1)[C@@H]1CC[C@H](C)[C@@H]2CC(=O)C(C)=C2C1`, the results for the IC50 in the series with Influenza A virus [2], in the series with Influenza A virus [3] and in the series on Influenza B virus [4] were 5.2 µM, 3.7 µM and above 25.4 µM, respectively. For the same compound, the CC50 in [5] was determined as 177 µM. Besides, the selectivity ratio in series [6] was determined as 34; in series [7], 47.6. In addition, the inhibition entry in the series with Influenza A virus [9] is “Active”.
With `C=C(C(=O)OCCCl)[C@@H]1CC[C@H](C)[C@@H]2CC(=O)C(C)=C2C1`, the 50% inhibitory concentration (IC50) in the series with Influenza A virus [10] is 17.2 µM; in the series with Influenza A virus [11], 27.8 µM; with Influenza B virus [12] it was 358 µM.
As to `C=C(C(=O)OCCCCCCCCCCBr)[C@@H]1CC[C@H](C)[C@@H]2CC(=O)C(C)=C2C1`, the IC50 in the series with Influenza A virus [2] is 16.4 µM; in the series with Influenza A virus [3] it was 6.7 µM; in the series with Influenza B virus [4], above 26.5 µM. Also, the CC50 in series [5] turned out to be 138 µM. For the same compound, the figures for the selectivity ratio in series [6] and in series [7] were 8.4 and 20.5, respectively. Moreover, the inhibition entry in the series on Influenza A virus [9] is “Active”.
Take `C=C(C(=O)OCCCCCCCCn1cncn1)[C@@H]1CC[C@H](C)[C@@H]2CC(=O)C(C)=C2C1`: the IC50 with Influenza A virus [2] came out at 5.2 µM; with Influenza A virus [3], 7.2 µM; in the series on Influenza B virus [4] it was 3.2 µM. In addition, in series [5], the CC50 was 202 µM. Moreover, the selectivity ratio in [6] is 38.8; in series [7] it was 28; in [8], 62.9.
With `C=C(C(=O)OCCN1CCN(c2ccccc2)CC1)[C@@H]1CC[C@H](C)[C@@H]2CC(=O)C(C)=C2C1`, the IC50 with Influenza A virus [2], in the series on Influenza A virus [3] and in the series on Influenza B virus [4] was 49.4 µM in each case. For the same compound, the CC50 in series [5] is 445 µM. Also, the selectivity ratio in series [6], in series [7] and in series [8] was 9 throughout.
Regarding `NC(=O)c1ncn([C@@H]2O[C@H](CO)[C@@H](O)[C@H]2O)n1` [RIBAVIRIN], the IC50 stood at 3.9 µM in the series on Influenza A virus [2], 1.9 µM in the series on Influenza A virus [3] and 14.7 µM in the series with Influenza B virus [4]. Further, the CC50 in series [5] was 1280 µM. Further, the selectivity ratio was found to be 329 in [6], 666 in series [7] and 86.9 in series [8].
For the compound `C=C(C(=O)OCCCCCCCCCCN1CCN(c2ccccc2)CC1)[C@@H]1CC[C@H](C)[C@@H]2CC(=O)C(C)=C2C1`, the 50% inhibitory concentration (IC50) in the series on Influenza A virus [2] was 94 µM; in the series with Influenza A virus [3], 2.4 µM; with Influenza B virus [4] it was above 152 µM. Further, in series [5], the CC50 was 456 µM. The selectivity ratio stood at 4.9 in series [6] and 188 in series [7]. The inhibition result in the series on Influenza A virus [9] is “Active”.
Consider `C=C(C(=O)OCCCCn1cncn1)[C@@H]1CC[C@H](C)[C@@H]2CC(=O)C(C)=C2C1`, for which the IC50 with Influenza A virus [2] stood at 42.9 µM; in the series on Influenza A virus [3], 57.6 µM; in the series with Influenza B virus [4], 77.5 µM. Moreover, the CC50 in series [5] was determined as 386 µM. The selectivity ratio came out at 9 in series [6], 6.7 in series [7] and 5 in series [8].
